Experimental findings from patent publication US20250129101A1, “Compound, Pharmaceutical Composition Comprising the Same and Method for Treating Cancer Using the Same” (NATIONAL TSING HUA UNIVERSITY, priority 2023, published 2025) are described below.

Data set [1] has as its target T1, KIF2C (Homo sapiens, UniProt Q99661).
T1 construct: KIF2C (216-598 a.a.); 6xHis (C); made in house; host or cells: E. coli BL21 (DE3), pET-28a
Briefly: In vitro validation: KIF2C kinesin activity, malachite green-based phosphate colorimetric assay. The following applies: for EC50: concentration that inhibits 50% of KIF2C activity. Type of data set: biochemical. As to the method:
(§1) The in vitro validation was performed by measuring KIF2C kinesin activity using malachite green-based phosphate colorimetric assay (BioVision). […] The microtubules from porcine brain tubulin (Cytoskeleton) or purified from HEK293 cells in Free-style medium (293Fs) were dissolved in the BRB80 buffer (80 mM PIPES pH 6.8, 1 mM EGTA, 1 mM MgCl2, 1 mM GTP, 1 mM DTT, and 10% DMSO) at 37° C. for 2 hr. Phosphates released from kinesin-mediated ATP hydrolysis was measured by adding 30 μL of the phosphate colorimetric reagent (BioVision), incubated for 10 min, and then measured with absorbance at 650 nm. […] The cell validation was performed by measuring cytotoxicity in MDA-MB-231 cells. The cells were cultured in a 96-well plate at a confluence of 2000 cells/well with indicates compounds for specific days. When the time was up, the culture medium in the plate was aspirated and replaced with a prepared CellTiter-Glo reagent (Promega)/DMEM mixture (1:1 mix of CellTiter-Glo reagent and serum-supplemented DMEM). After incubation for 10 min, the luminescence was measured with an ELISA plate reader to determine the cell viability.
In vitro kinesin activity was measured using malachite green-based phosphate colorimetric assay (BioVision). […] The microtubules from porcine brain tubulin (Cytoskeleton) or purified from HEK293 cells in Free-style medium (293Fs) were dissolved in the BRB80 buffer (80 mM PIPES pH 6.8, 1 mM EGTA, 1 mM MgCl2, 1 mM GTP, 1 mM DTT, and 10% DMSO) at 37° C. for 2 hr. Phosphates released from kinesin-mediated ATP hydrolysis was measured by adding 30 μL of the phosphate colorimetric reagent (BioVision), incubated for 10 min, and then measured with absorbance at 650 nm.
Constructs of sN+M regions of KIF2C (216-598 a.a.), KIF2A (181-562 a.a.) and KIF2B (171-553 a.a.) with C-terminal 6×His tag were subcloned into pET-28a vector and expressed in BL21 (DE3) E. coli cells (Novartis) cultured in Luria-Bertani medium supplemented with 50 ug/mL kanamycin at 37° C. After induction with 0.8 mM IPTG for 18 hr at 20° C., the cells were pelleted by centrifugation at 6000 rpm for 30 min at 10° C. The collected pellets were resuspended in 30 mL of buffer A (20 mM Tris-HCl pH 7.5, 500 mM NaCl, 10 mM imidazole, 1% CHAPS, and 1 mM PMSF) and next subjected to a high-pressure homogenizer (EmulsiFlex-C3) for cell lysis. After removing the cell debris by centrifugation at 13000 rpm for 30 min at 10° C., the recombinant Kinesin-13 in the supernatant was purified using nickel affinity chromatography. Firstly, the supernatant was applied to the Ni-NTA column (GE Healthcare) pre-equilibrated with buffer A. Secondly, the column was washed with 10× column volumes of buffer A to remove the unwanted proteins. The washed column was then eluted with 10× column volumes of buffer containing increasing concentrations of imidazole (40, 100, 300, 1000 mM), and the majority of the recombinant Kinesin-13 protein was eventually obtained in a fraction of 300 mM imidazole. The fractions containing the recombinant Kinesin-13 were subsequently concentrated in the buffer B (20 mM Tris-HCl pH 7.5, 10 mM imidazole, 50 mM NaCl, 2 mM DTT) using an Amicon® Ultra filter (Millipore) and subjected to cation exchange column (Capto S, GE Healthcare) for further purification. The recombinant Kinesin-13 was then eluted in elution buffer (20 mM Tris-HCl pH 7.5 and 2 mM DTT) containing 400 mM of NaCl and stored at −80° C. for long-term storage.

For data set [2], the system named is MDA-MB-231 cells. Briefly: Cell validation: cytotoxicity in MDA-MB-231 cells (CellTiter-Glo). The following applies: for Cell validation (IC50) / IC50: cytotoxicity in MDA-MB-231 cells; for IC50: Homo sapiens. Type of data set: cell-based. As to the method: as §1
The cancer cells were cultured in a 96-well plate at a confluence of 1000-2000 cells/well with indicated drugs for specific days. When the time was up, the culture medium in the plate was aspirated and replaced with a prepared CellTiter-Glo reagent/DMEM mixture (1:1 mix of CellTiter-Glo reagent and serum-supplemented DMEM). After incubation for 10 min, the luminescence (proportional to the number of living cells) was measured with an ELISA plate reader to determine the cell viability.

Some results are limits rather than exact numbers.

T1 sequence (Q99661 216-598): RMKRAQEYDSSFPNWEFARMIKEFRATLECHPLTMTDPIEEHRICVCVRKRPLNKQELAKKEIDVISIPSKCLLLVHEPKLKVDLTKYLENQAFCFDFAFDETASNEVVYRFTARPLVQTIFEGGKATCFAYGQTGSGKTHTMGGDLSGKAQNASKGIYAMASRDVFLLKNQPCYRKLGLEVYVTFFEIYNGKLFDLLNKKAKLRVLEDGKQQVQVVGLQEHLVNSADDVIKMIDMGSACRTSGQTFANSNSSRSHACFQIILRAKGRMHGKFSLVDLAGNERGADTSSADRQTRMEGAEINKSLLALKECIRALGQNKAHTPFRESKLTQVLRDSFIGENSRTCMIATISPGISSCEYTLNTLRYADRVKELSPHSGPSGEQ

Take `CC1=C(C(=O)OC(C)C)C(c2ccc(Br)cc2)n2c(s/c(=C\c3ccc(OCC(=O)N4CCN(C)CC4)cc3)c2=O)=N1` (stereo not drawn) [20S0 (41), isopropyl (Z)-5-(4-bromophenyl)-7-methyl-2-(4-(2-(4-methylpiperazin-1-yl)-2-oxoethoxy)benzylidene)-3-oxo-2,3-dihydro-5H-thiazolo[3,2-a]pyrimidine-6-carboxylate]: the EC50 in data set [1] fell in the range of 50 to 100 µM. Further, the “Cell validation (IC50)” value in data set [2] is recorded as “+ + +”. The compound `CCN1CCN(C(=O)COc2ccc(/C=c3\sc4n(c3=O)C(c3ccc(Cl)cc3)C(C(=O)OC(C)C)=C(C)N=4)cc2)CC1` (stereo not drawn) [Compound 13S0] returned a concentration for a half-maximal effect (EC50) in data set [1] of 50 to 100 µM. Also, the “cytotoxicity on MDA-MB-231 cells (in words)” value in data set [2] (72 hr) is given as “showed cytotoxicity”. Moreover, the “Cell validation (IC50)” value in data set [2] is reported as “+ +”. Regarding `CC1=C(C(=O)OC(C)C)C(c2ccc(Cl)cc2)n2c(s/c(=C\c3ccc(OCC(=O)N4CCC(N5CCN(C)CC5)CC4)cc3)c2=O)=N1.O=C(O)/C=C\C(=O)O` (stereo not drawn) [24S9 (135), isopropyl (Z)-5-(4-chlorophenyl)-7-methyl-2-(4-(2-(4-(4-methylpiperazin-1-yl)piperidin-1-yl)-2-oxoethoxy)benzylidene)-3-oxo-2,3-dihydro-5H-thiazolo[3,2-a]pyrimidine-6-carboxylate maleate], the “Cell validation (IC50)” value in data set [2] is “+ + + +”. `CC1=C(C(=O)OCc2ccccc2)C(c2ccc(Cl)cc2)n2c(s/c(=C\c3ccc(OCC(=O)N4CCN(C)CC4)cc3)c2=O)=N1` (stereo not drawn) [29S0 (97), benzyl (Z)-5-(4-chlorophenyl)-7-methyl-2-(4-(2-(4-methylpiperazin-1-yl)-2-oxoethoxy)benzylidene)-3-oxo-2,3-dihydro-5H-thiazolo[3,2-a]pyrimidine-6-carboxylate] yielded an EC50 in data set [1] of 50 to 100 µM. Besides, in data set [2], the “Cell validation (IC50)” value is “+ + +”.

Consider `CCOC(=O)C1=C(C)N=c2s/c(=C\c3ccc(OCC(=O)OC)cc3)c(=O)n2C1c1ccc(Cl)cc1` (stereo not drawn) [35S0 (110), ethyl (Z)-5-(4-chlorophenyl)-2-(4-(2-methoxy-2-oxoethoxy)benzylidene)-7-methyl-3-oxo-2,3-dihydro-5H-thiazolo[3,2-a]pyrimidine-6-carboxylate], for which the EC50 in data set [1] was over 100 µM. Further, the IC50 in data set [2] was 20 to 50 µM.

`CC1=C(C(=O)OC(C)C)C(c2ccc(Cl)cc2)n2c(s/c(=C\c3ccc(OCC(=O)NCC4CCN(C)CC4)cc3)c2=O)=N1` (stereo not drawn) [Compound 138] displayed an EC50 in data set [1] of 50 to 100 µM. For the same compound, the IC50 in data set [2] lay in the range of 20 to 50 µM. The compound `CCOC(=O)C1=C(C)N=c2s/c(=C\c3ccc(OCC(=O)N4CCN(C)CC4)cc3)c(=O)n2C1c1ccc(Cl)cc1` (stereo not drawn) [49S0 (94)] yielded an EC50 in data set [1] of 50 to 100 µM. The “Cell validation (IC50)” value in data set [2] is “+ +”. For the compound `CC1=C(C(=O)OC(C)C)C(c2ccc(-n3ccnc3)cc2)n2c(s/c(=C\c3ccc(OCC(=O)N4CCN(C)CC4)cc3)c2=O)=N1` (stereo not drawn) [21S0 (46), isopropyl (Z)-5-(4-(1H-imidazol-1-yl)phenyl)-7-methyl-2-(4-(2-(4-methylpiperazin-1-yl)-2-oxoethoxy)benzylidene)-3-oxo-2,3-dihydro-5H-thiazolo[3,2-a]pyrimidine-6-carboxylate], the concentration giving a half-maximal response (EC50) in data set [1] lay in the range of 50 to 100 µM. Further, in data set [2], the “Cell validation (IC50)” value is reported as “+ +”. Taken in the same sequence, the figures for `C=CCOC(=O)C1=C(C)N=c2s/c(=C\c3ccc(OCC(=O)N4CCN(C)CC4)cc3)c(=O)n2C1c1ccc(Cl)cc1` (stereo not drawn) [30S0 (96), allyl (Z)-5-(4-chlorophenyl)-7-methyl-2-(4-(2-(4-methylpiperazin-1-yl)-2-oxoethoxy)benzylidene)-3-oxo-2,3-dihydro-5H-thiazolo[3,2-a]pyrimidine-6-carboxylate] were over 100 µM and “+ +”. On to `CCOC(=O)C1=C(C)N=c2s/c(=C\c3ccc(OCC(=O)N4CCN(C)CC4)cc3)c(=O)n2C1c1ccc(N(C)C)cc1` (stereo not drawn) [Compound 143], for which the EC50 in data set [1] lay within 50 to 100 µM. Besides, in data set [2], the IC50 was 20 to 50 µM. Consider `COC(=O)Nc1nc2ccc(C(=O)c3cccs3)cc2[nH]1` [nocodazole, reference compound], for which the “KIF2C activity in reaction containing nocodazole (in words)” value in data set [1] (1 μM nocodazole) is reported as “largely reduced”.

Usually EC50 stands for the concentration that produces a half-maximal response. For orientation: IC50 means the midpoint of a concentration-inhibition curve. Low readings indicate inhibition by little substance, high ones a need for much substance.
